In PMC10712727, “Safety, Tolerability, and Pharmacokinetics of Senaparib, a Novel PARP1/2 Inhibitor, in Chinese Patients With Advanced Solid Tumors: A Phase I Trial” (The Oncologist, 2023):

System: advanced solid tumors
Experiment: Tumor response per RECIST v1.1 (ORR, DCR, DOR, PFS), ITT population
Type: in vivo, human
Excerpt: The dose-expansion period included 3 populations: dose groups in which at least one patient achieved complete response (CR) or partial response (PR) per RECIST v1.1[16] and 1 dose group higher (evaluated for safety), as well as the dose group at the maximum tolerated dose (MTD)/recommended phase II dose (RP2D). Each of these groups included those patients in the respective dose-escalation group plus a planned additional 10 patients (approximately 20 patients in the MTD/RP2D group) with BRCA^mut+ solid tumors (ovarian, breast, or prostate cancer were preferred, and ovarian cancer could be BRCA wild type). Patients received senaparib monotherapy orally QD or BID (50-mg dose only) over each 3-week cycle until disease progression or unacceptable toxicity.
Safety was assessed by recording the incidence of dose-limiting toxicities (DLTs), and the incidence, nature, severity (graded per National Cancer Institute Common Terminology Criteria for Adverse Events version 4.03 [NCI CTCAE v4.03][18]), and relatedness of treatment-emergent adverse events (TEAEs). DLTs were predefined toxicities (Supplementary Table S2) recorded over the 7 days following the single-dose administration of senaparib and during the first treatment cycle (day 1-day 21) for each dose group in the dose-escalation period only. The MTD was defined as the maximum dose at which ≤1/6 patients experienced a DLT. Senaparib PK parameters were derived from blood samples collected from patients after the single administration, and at regular intervals during the first cycle of the dose-escalation and dose-expansion periods. Plasma concentrations of senaparib were determined using high-performance liquid chromatography-tandem mass spectrometry. Tumor response was assessed every 6 weeks per RECIST v1.1,[16] recording objective response rate (ORR), disease control rate (DCR), duration of response (DOR), and progression-free survival (PFS) by dose level for all patients and for those harboring BRCA^mut+ tumors.
There was no formal sample size calculation based on statistical hypothesis testing for this study; the planned enrolment was approximately 30-60 patients across the dose-escalation and dose-expansion cohorts. The actual number in the dose-escalation cohort was adjusted based on the number of dose cohorts required for the modified Fibonacci dose-escalation design and the determined MTD. Definitions for all analysis populations (safety, DLT, PK, and efficacy [intent-to-treat, ITT]) are provided in Supplementary Table S2. No statistical tests were performed; patient demographic and baseline characteristics, safety/tolerability, PK parameters, and efficacy were evaluated descriptively. ORR and DCR and their 95% CIs were calculated for each group using the exact probability method. Kaplan-Meier statistics were used to estimate DOR and PFS, and their 95% CIs for each dose group separately. Dose linearity was explored based on the single-dose data of area under the time-concentration curve (AUC) and maximum plasma concentration (Cmax) using the power model (Y = α × dose β) for the dose range 2-80 mg on a log-transformed scale. The following criterion was used to determine whether dose proportionality was met: if the (2-sided) 90% CI for β was wholly contained within the interval (1 + log(0.5)/log(r), 1 + log(2)/log(r)), then dose proportionality was supported. Here, r was defined as the ratio of the highest to lowest dose. All data analyses were carried out using SAS EG7.1 or higher or (for PK parameters) WinNonlin 7.0 or higher.

[1] = ITT, evaluable n = 44, all doses

O=C(c1cc(Cn2c(=O)[nH]c(=O)c3c(F)cccc32)ccc1F)N1CCN(c2ncccn2)CC1 [Senaparib]
Patients with a reduction from baseline in tumor size (BRCA wild-type (6/18)): 33.3% | Patients with a reduction from baseline in tumor size (BRCA^mut+ patients (13/26)): 50.0% | Median PFS (ITT population, 95% CI, 56-255 days): 167 days | DOR, Events (ITT, 2 mg QD n = 1): 0 n (%) | ORR (ITT, 2 mg QD n = 1): 0 n (%) | PFS, Events (ITT, 2 mg QD n = 1): 0 (0) n (%) | DOR, Events (ITT, 5 mg QD n = 3): 0 n (%) | ORR (ITT, 5 mg QD n = 3): 0 n (%) | PFS, Events (ITT, 5 mg QD n = 3): 2 (66.7) n (%) | PFS, Median (95% CI) (ITT, 5 mg QD n = 3): 464 (45-464) days | Complete response (ITT, 10 mg QD n = 3): 0 n (%) | DCR (ITT, 10 mg QD n = 3): 1 (33.3) n (%) | DOR, Events (ITT, 10 mg QD n = 3): 0 n (%) | ORR (ITT, 10 mg QD n = 3): 0 (0) n (%) | PFS, Events (ITT, 10 mg QD n = 3): 3 (100) n (%) | PFS, Median (95% CI) (ITT, 10 mg QD n = 3): 49 (47-88) days | Partial response (ITT, 10 mg QD n = 3): 0 n (%) | Stable disease (ITT, 10 mg QD n = 3): 1 (33.3) n (%) | Complete response (ITT, 20 mg QD n = 5): 0 n (%) | DCR (ITT, 20 mg QD n = 5): 2 (50.0) n (%) | DOR, Events (ITT, 20 mg QD n = 5): 1 (50.0) n (%) | DOR, Median (95% CI) (ITT, 20 mg QD n = 5): — (1-NR) | ORR (ITT, 20 mg QD n = 5): 2 (50.0) n (%) | PFS, Events (ITT, 20 mg QD n = 5): 3 (60.0) n (%) | PFS, Median (95% CI) (ITT, 20 mg QD n = 5): 78 (39-NR) days | Partial response (ITT, 20 mg QD n = 5): 2 (50.0) n (%) | Stable disease (ITT, 20 mg QD n = 5): 0 n (%) | Complete response (ITT, 40 mg QD n = 3): 0 n (%) | DCR (ITT, 40 mg QD n = 3): 0 (0) n (%) | DOR, Events (ITT, 40 mg QD n = 3): 0 n (%) | ORR (ITT, 40 mg QD n = 3): 0 (0) n (%) | PFS, Events (ITT, 40 mg QD n = 3): 2 (66.7) n (%) | PFS, Median (95% CI) (ITT, 40 mg QD n = 3): 49 (48-NR) days | Partial response (ITT, 40 mg QD n = 3): 0 n (%) | Stable disease (ITT, 40 mg QD n = 3): 0 n (%) | Complete response (ITT, 50 mg BID n = 4): 0 n (%) | DCR (ITT, 50 mg BID n = 4): 2 (66.7) n (%) | DOR, Events (ITT, 50 mg BID n = 4): 0 n (%) | ORR (ITT, 50 mg BID n = 4): 1 (33.3) n (%) | PFS, Events (ITT, 50 mg BID n = 4): 1 (25.0) n (%) | PFS, Median (95% CI) (ITT, 50 mg BID n = 4): — (46-NR) | Partial response (ITT, 50 mg BID n = 4): 1 (33.3) n (%) | Stable disease (ITT, 50 mg BID n = 4): 1 (33.3) n (%) | Complete response (ITT, 60 mg QD n = 5): 0 n (%) | DCR (ITT, 60 mg QD n = 5): 4 (100) n (%) | DOR, Events (ITT, 60 mg QD n = 5): 0 n (%) | ORR (ITT, 60 mg QD n = 5): 1 (25.0) n (%) | PFS, Events (ITT, 60 mg QD n = 5): 2 (40.0) n (%) | PFS, Median (95% CI) (ITT, 60 mg QD n = 5): 255 (127-NR) days | Partial response (ITT, 60 mg QD n = 5): 1 (25.0) n (%) | Stable disease (ITT, 60 mg QD n = 5): 3 (75.0) n (%) | Complete response (ITT, 80 mg QD n = 9): 0 n (%) | DCR (ITT, 80 mg QD n = 9): 6 (75.0) n (%) | DOR, Events (ITT, 80 mg QD n = 9): 4 (100) n (%) | DOR, Median (95% CI) (ITT, 80 mg QD n = 9): 144.5 (39-211) days | ORR (ITT, 80 mg QD n = 9): 4 (50.0) n (%) | PFS, Events (ITT, 80 mg QD n = 9): 8 (88.9) n (%) | PFS, Median (95% CI) (ITT, 80 mg QD n = 9): 167 (40-216) days | Partial response (ITT, 80 mg QD n = 9): 4 (50.0) n (%) | Stable disease (ITT, 80 mg QD n = 9): 2 (25.0) n (%) | Complete response (ITT, 100 mg QD n = 20): 0 n (%) | DCR (ITT, 100 mg QD n = 20): 12 (70.6) n (%) | DOR, Events (ITT, 100 mg QD n = 20): 1 (50.0) n (%) | DOR, Median (95% CI) (ITT, 100 mg QD n = 20): — (169-NR) | ORR (ITT, 100 mg QD n = 20): 2 (11.8) n (%) | PFS, Events (ITT, 100 mg QD n = 20): 8 (40.0) n (%) | PFS, Median (95% CI) (ITT, 100 mg QD n = 20): 289 (48-NR) days | Partial response (ITT, 100 mg QD n = 20): 2 (11.8) n (%) | Stable disease (ITT, 100 mg QD n = 20): 10 (58.8) n (%) | Complete response (ITT, 120 mg QD n = 4): 0 n (%) | DCR (ITT, 120 mg QD n = 4): 1 (33.3) n (%) | DOR, Events (ITT, 120 mg QD n = 4): 0 n (%) | ORR (ITT, 120 mg QD n = 4): 0 (0) n (%) | PFS, Events (ITT, 120 mg QD n = 4): 3 (75.0) n (%) | PFS, Median (95% CI) (ITT, 120 mg QD n = 4): 153 (44-258) days | Partial response (ITT, 120 mg QD n = 4): 0 n (%) | Stable disease (ITT, 120 mg QD n = 4): 1 (33.3) n (%) | Complete response (ITT, Total N = 57): 0 n (%) | DCR (ITT, Total N = 57): 28 (63.6) n (%) | DOR, Events (ITT, Total N = 57): 6 (60.0) n (%) | DOR, Median (95% CI) (ITT, Total N = 57): 169 (1-NR) days | ORR (ITT, Total N = 57): 10 (22.7) n (%) | PFS, Events (ITT, Total N = 57): 32 (56.1) n (%) | PFS, Median (95% CI) (ITT, Total N = 57): 167 (56-255) days | Partial response (ITT, Total N = 57): 10 (22.7) n (%) | Stable disease (ITT, Total N = 57): 18 (40.9) n (%) | Disease control rate (DCR) [1]: 63.6% | Objective response rate (ORR) [1]: 22.7% | Stable disease, patients [1]: 40.9% | Median DOR (ITT, 95% CI, 1-not reached): 169 days | Doses at which antitumor activity was observed (in vivo): ≥ 20 mg QD | Patients with a decrease from baseline in tumor size (non-ovarian cancers (6/20)): 30.0% | Patients with a decrease from baseline in tumor size (ovarian cancer (13/24)): 54.2% | ORR (patients with breast cancer (3/12)): 25.0% | ORR (patients with ovarian cancer (5/25)): 20.0% | ORR (patients with prostate cancer (1/4)): 25.0%
